pIC50: −log10 of the molar value.
molecular target: MAPK14;MAPK11;MAPK12 (human) (UniProt Q16539); experiment: Inhibition of p38 Kinase Activity

SMILES	pIC50
Cc1ccc(CC2C[C@@H](Nc3nc(Nc4cc(C(N)=O)ccc4C)nc(N(C)CC(C)C)n3)CN2)cc1 (stereo partly specified)	> 6.00
Cc1cc(Cl)c(C(N)=O)cc1Nc1nc(N[C@H]2CCNC2)nc(N(C)CC(C)C)n1	> 6.00
C[C@H](CNc1nc(NCCO)nc(Nc2ccc3ncsc3c2)n1)c1ccccc1	> 5.00
CC1(C)[C@H]2CC[C@H](CNc3nc(Cl)nc(Nc4ccc5ncsc5c4)n3)[C@@H]1C2	> 5.00
CCCCNc1nc(Nc2cc(C(N)=O)ccc2C)nc(N[C@H]2CCNC2)n1	> 6.00
Cc1ccc(C(=O)Nc2ccccn2)cc1Nc1nc(N[C@H]2CCNC2)nc(N(C)CC(C)(C)C)n1	> 6.00
CNC(=O)c1ccc(C)c(Nc2nc(N[C@H]3CCNC3)nc(N(C)CC(C)(C)C)n2)c1	> 6.00
Cc1ccc(C(N)=O)cc1Nc1nc(N[C@@H]2CCNC2)nc(N(C)C2CCCC2)n1	> 6.00
Cc1ccc(C(N)=O)cc1Nc1nc(N[C@H]2CCN(Cc3cccnc3)C2)nc(N(C)CC(C)C)n1	> 6.00
CNC(=O)c1ccc(C)c(Oc2nc(NCc3ccccn3)nc(N(C)CC(C)(C)C)n2)c1	> 4.52
Cc1ccc(C(N)=O)cc1Nc1nc(N[C@H]2CCN(C(C)c3cccnc3)C2)nc(N(C)CC(C)C)n1 (stereo partly specified)	> 6.00
CC(C)C(=O)N1CCN(c2nc(NCC(C)c3ccccc3)nc(Nc3ccc4ncsc4c3)n2)CC1 (stereo unspecified)	> 5.00
Cc1ccc(C(N)=O)cc1Nc1nc(N[C@H]2CCN(Cc3ccc(Cl)c(Cl)c3)C2)nc(N(C)CC(C)C)n1	> 6.00
Cc1ccc(C(=O)Nc2ccc(F)cc2)cc1Nc1nc(N[C@H]2CCNC2)nc(N(C)CC(C)(C)C)n1	> 6.00
CCONC(=O)c1ccc(C)c(Nc2nc(N(C)CC(C)(C)C)nc(N3CCCNCC3)n2)c1	> 6.00
Cc1ccc(C(N)=O)cc1Nc1nc(N[C@H]2CCCC[C@H]2NC(=O)CO[C@H]2C[C@@H](C)CC[C@H]2C(C)C)nc(N(C)CC(C)C)n1	> 6.00
Cc1ccc(C(N)=O)cc1Sc1nc(NCc2ccccn2)nc(N(C)CC(C)(C)C)n1	> 4.52
Cc1ccc(C(N)=O)cc1Nc1nc(N[C@@H]2CCNC2)nc(-c2cccc(Cl)c2)n1	> 6.00
Cc1ccc(C(N)=O)cc1Nc1nc(NC2CCN(C(C)(C)C)C2)nc(N(C)CC(C)C)n1 (stereo unspecified)	> 6.00
Cc1ccc(C(N)=O)cc1Nc1nc(NCC(C)c2ccccc2)nc(N[C@@H]2CCNC2)n1 (stereo partly specified)	> 6.00
CNC(=O)c1ccc(C)c(Nc2nc(NCC(C)(C)C)nc(N[C@H]3CCNC3)n2)c1	> 6.00
CONC(=O)c1ccc(C)c(Nc2nc(N[C@H]3CCNC3)cc(N(C)CC(C)(C)C)n2)c1	> 6.00

SMILES	pIC50
CC1(C)[C@@H]2CC[C@@H](CNc3nc(Nc4cc(C(N)=O)ccc4Cl)nc(NC4CCNC4)n3)[C@H]1C2 (stereo partly specified)	> 6.00
CONC(=O)c1ccc(C)c(Nc2nc(N(C)CC(C)(C)C)nc(N3CCCNCC3)n2)c1	> 6.00
Cc1ccc(C(=O)Nc2ccccc2)cc1Nc1nc(N[C@H]2CCNC2)nc(N(C)CC(C)(C)C)n1	> 6.00
Cc1ccc(C(N)=O)cc1Sc1nc(N(C)CC(C)(C)C)nc(N2CCCN(C)CC2)n1	> 4.52
Cc1ccc(C(N)=O)cc1Nc1nc(NCc2cccc3ccccc23)nc(N[C@@H]2CCNC2)n1	> 6.00
CCONC(=O)c1ccc(C)c(Nc2nc(NC)nc(N(C)CC(C)(C)C)n2)c1	> 6.00
Cc1ccc(C(N)=O)cc1Nc1nc(NC[C@H]2CCCN2)nc(N(C)CC2CCCC2)n1	> 6.00
Cc1ccc(C(N)=O)cc1Nc1nc(NCC2CCC2)nc(N[C@H]2CCNC2)n1	> 6.00
Cc1ccc(C(N)=O)cc1Nc1nc(N[C@H]2CCN(CC(C)(C)C)C2)nc(N(C)CC(C)(C)C)n1	> 6.00
Cc1ccc(C(N)=O)cc1Nc1cc(N(C)CC(C)C)nc(N[C@H]2CCNC2)n1	> 6.00
CN(CCN(C)c1nc(NCCc2ccccc2)nc(Nc2ccc3ncsc3c2)n1)C(=O)CCC(=O)O	> 5.00
NC(=O)c1ccc(N)c(Nc2nc(NC3CCNC3)nc(N3CCCC3)n2)c1 (stereo unspecified)	> 6.00
CN(CC(C)(C)C)c1nc(Cc2cccc(C(N)=O)c2)nc(N[C@H]2CCNC2)n1	> 6.00
CC(CNc1nc(Nc2ccc3ncsc3c2)nc(N2CC3CC2CN3C(=O)c2ccco2)n1)c1ccccc1 (stereo unspecified)	> 5.00
Cc1ccc(C(N)=O)cc1Nc1nc(N[C@H]2CCCC[C@H]2NC(=O)CC(C)C)nc(N(C)CC(C)C)n1	> 6.00
COC1CCCC(C(=O)N(C)CCCN(C)c2nc(NCC(C)c3ccccc3)nc(Nc3ccc4ncsc4c3)n2)C1 (stereo unspecified)	> 5.00
CNCCN(C)c1nc(NCC2CCC3CC2C3(C)C)nc(Nc2ccc3ncccc3c2)n1 (stereo unspecified)	> 5.00
Cc1ccc(C(N)=O)cc1Nc1nc(NCCc2ccc(F)cc2)nc(N[C@H]2CCNC2)n1	> 6.00
Cc1ccc(C(=O)Nc2ccccc2)cc1Nc1nc(N[C@H]2CCNC2)nc(N(C)CC(C)C)n1	> 6.00
c1ccc(C2CCCN(c3nc(Nc4ccc5ncsc5c4)nc(N4CCNCC4)n3)C2)cc1 (stereo unspecified)	> 5.00
CCN1CC[C@@H](Nc2nc(Nc3cc(C(=O)NOC)ccc3C)nc(N(C)CC(C)(C)C)n2)C1	> 6.00
CC(CNc1nc(Nc2ccc3ncsc3c2)nc(N(C)CCCN(C)S(=O)(=O)N(C)C)n1)c1ccccc1 (stereo unspecified)	> 5.00

SMILES	pIC50
CC(C)OCCNc1cc(N(C)C)nc(-n2cnc3ccccc32)n1	> 5.00
COCC(=O)N1CCN(c2nc(NCC(C)c3ccccc3)nc(Nc3ccc4ncsc4c3)n2)CC1 (stereo unspecified)	> 5.00
Cc1ccc(C(N)=O)cc1Nc1nc(N[C@H]2CN[C@H](C)C2)nc(N(C)CC(C)(C)C)n1	> 6.00
CNCCN(C)c1nc(NCC2CCC3CC2C3(C)C)nc(Nc2ccc3ncsc3c2)n1 (stereo unspecified)	> 5.00
CC1(C)C2CCC(CNc3nc(Nc4ccc5ncoc5c4)nc(N4CCNCC4)n3)C1C2 (stereo unspecified)	> 5.00
CCNC(=O)c1ccc(C)c(Nc2nc(N[C@H]3CCNC3)nc(N(C)CC(C)C)n2)c1	> 6.00
Cc1ccc(C(N)=O)cc1Nc1nc(N[C@H]2CCCNC2)nc(N(C)CC(C)(C)C)n1	> 6.00
Cc1ccc(C(N)=O)cc1Nc1nc(NC[C@@H]2CC[C@H]3C[C@H]2C3(C)C)nc(NC2CCNCC2)n1	> 6.00
CC(CNc1nc(Nc2ccc3ncsc3c2)nc(N2CCN(C(=O)c3ccc(-c4ccccc4)cc3)CC2)n1)c1ccccc1 (stereo unspecified)	> 5.00
Cc1ccc(C(N)=O)cc1Nc1nc(N[C@H]2CONC2=O)nc(N(C)CC(C)(C)C)n1	> 6.00
Cc1ccc(C(N)=O)cc1Nc1nc(N[C@@H]2CCCC[C@H]2N)nc(N(C)CC(C)C)n1	> 6.00
CCN(CC(C)(C)C)c1nc(Nc2cc(C(N)=O)ccc2C)nc(N[C@H]2CCNC2)n1	> 6.00
Cc1ccc(C(N)=O)cc1Sc1nc(N[C@@H]2CCNC2)nc(N(C)CC(C)(C)C)n1	> 4.52
CCONC(=O)c1ccc(C)c(Nc2cc(N(C)CC(C)(C)C)nc(N3CCCN(C)CC3)n2)c1	> 6.00
Cc1ccc(C(N)=O)cc1Nc1nc(N[C@H]2CCN(C3CCCCC3)C2)nc(N(C)CC(C)(C)C)n1	> 6.00
CC(CCCCCCNc1nc(NCC(C)c2ccccc2)nc(Nc2ccc3ncoc3c2)n1)C(N)=O (stereo unspecified)	> 5.00
CN(C)c1nc(Nc2ccc3ncsc3c2)nc(NC(C)(C)Cc2ccccc2)n1	> 5.00
CCCN(C)c1nc(Nc2cc(C(N)=O)ccc2C)nc(N[C@H]2CCNC2)n1	> 6.00
COc1ccc(NC(=O)c2ccc(C)c(Nc3nc(N[C@H]4CCNC4)nc(N(C)CC(C)(C)C)n3)c2)cc1	> 6.00
CC(C)OCCNc1cc(N2CCNCC2)nc(-n2cnc3ccccc32)n1	> 5.00
Cc1ccc(C(N)=O)cc1Nc1nc(CCC(C)C)nc(N[C@H]2CCNC2)n1	> 6.00
Cc1c(Cl)cc(C(N)=O)cc1Nc1nc(N[C@H]2CCNC2)nc(N(C)CC(C)(C)C)n1	> 6.00
